This passage reports Activity, inhibition and IC50 results from ChEMBL document CHEMBL4130473, “Design, synthesis and biological evaluation of 4,7,12,12a-tetrahydro-5H-thieno[3',2':3,4]pyrido[1,2-b]isoquinolines as novel adenosine 5'-monophosphate-activated protein kinase (AMPK) indirect activators for the treatment of type 2 diabetes” (Eur J Med Chem, 2017).

The term IC50 denotes the concentration needed to halve the response being measured.

SMILES strings stand for the structures. The source made the active and inactive calls. No cut-off for these calls is given here.

Experiment [1] concerns Hepatocyte. The experiment in a line: Inhibition of glucose production in Sprague-Dawley rat primary hepatocytes grown under gluconeogenic medium assessed as glucose production level at 20 uM incubated for 6 hrs by glucose assay reagent based glucose oxidase method (reference value: 100%). In kind it is functional. Details: scale not given: the % may be the effect or the level left.

Experiment [2] has as its system Hepatocyte. The experiment in a line: Inhibition of glucose production in Sprague-Dawley rat primary hepatocytes grown under gluconeogenic medium assessed as glucose production level at 5 uM incubated for 6 hrs by glucose assay reagent based glucose oxidase method (reference value: 100%). Details: scale not given: the % may be the effect or the level left. In kind it is functional.

The test system of experiment [3] is Hepatocyte. The experiment in a line: Inhibition of glucose production in Sprague-Dawley rat primary hepatocytes grown under gluconeogenic medium assessed as glucose production level at 10 uM incubated for 6 hrs by glucose assay reagent based glucose oxidase method (reference value: 100%). Format: functional. Details: scale not given: the % may be the effect or the level left.

In experiment [4] the test system is Hepatocyte. Put plainly: Inhibition of glucose production in Sprague-Dawley rat primary hepatocytes grown under gluconeogenic medium incubated for 6 hrs by glucose assay reagent based glucose oxidase method (reference value: 100%). In kind it is functional, cell-based.
For experiment [5], the system named is L6. Put plainly: Stimulation of glucose consumption in rat L6 cells at 20 uM incubated for 12 hrs by glucose assay reagent based glucose oxidase method relative to untreated control. Format: functional.
Experiment [6] concerns L6. The experiment in a line: Inhibition of mitochondrial membranes potential in rat L6 cells assessed as mitochondrial membranes potential level at 20 uM incubated for 40 mins by JC1 dye staining based fluorescence assay (reference value: 100 +/- 2.8%). In kind it is functional. Details: scale not given: the % may be the effect or the level left.
The target in experiment [7] is AMP-activated protein kinase alpha-2/beta-2/gamma-2 (Homo sapiens) (UniProt P54646+O43741+Q9UGJ0). Put plainly: Activation of human recombinant AMPKalpha2beta2gamma2 expressed in Escherichia coli at 50 nM incubated for 1 hr using serine/threonine kinase substrate.
Experiment [8] concerns the target AMPK alpha1/beta1/gamma2 (Homo sapiens) (UniProt Q9UGJ0+Q9Y478+Q13131). Put plainly: Activation of human recombinant AMPKalpha1beta1gamma2 expressed in Escherichia coli at 50 nM incubated for 1 hr using serine/threonine kinase substrate.
For experiment [9], the target named is AMP-activated protein kinase alpha-1/beta-2/gamma-3 (Homo sapiens) (UniProt O43741+Q13131+Q9UGI9). The experiment in a line: Activation of human recombinant AMPKalpha1beta2gamma3 expressed in Escherichia coli at 50 nM incubated for 1 hr using serine/threonine kinase substrate.
Chain of AMP-activated protein kinase alpha-1/beta-2/gamma-3 (Homo sapiens) (O43741 whole entry, looked up): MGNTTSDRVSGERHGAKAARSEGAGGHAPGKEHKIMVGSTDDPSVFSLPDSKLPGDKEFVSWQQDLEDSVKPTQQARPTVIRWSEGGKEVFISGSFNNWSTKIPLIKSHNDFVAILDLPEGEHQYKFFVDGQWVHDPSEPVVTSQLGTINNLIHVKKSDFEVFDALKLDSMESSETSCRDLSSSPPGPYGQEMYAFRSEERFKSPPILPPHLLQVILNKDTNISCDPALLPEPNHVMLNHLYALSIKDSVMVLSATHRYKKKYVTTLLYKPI
Chain of AMP-activated protein kinase alpha-1/beta-2/gamma-3 (Homo sapiens) (Q13131 whole entry, looked up): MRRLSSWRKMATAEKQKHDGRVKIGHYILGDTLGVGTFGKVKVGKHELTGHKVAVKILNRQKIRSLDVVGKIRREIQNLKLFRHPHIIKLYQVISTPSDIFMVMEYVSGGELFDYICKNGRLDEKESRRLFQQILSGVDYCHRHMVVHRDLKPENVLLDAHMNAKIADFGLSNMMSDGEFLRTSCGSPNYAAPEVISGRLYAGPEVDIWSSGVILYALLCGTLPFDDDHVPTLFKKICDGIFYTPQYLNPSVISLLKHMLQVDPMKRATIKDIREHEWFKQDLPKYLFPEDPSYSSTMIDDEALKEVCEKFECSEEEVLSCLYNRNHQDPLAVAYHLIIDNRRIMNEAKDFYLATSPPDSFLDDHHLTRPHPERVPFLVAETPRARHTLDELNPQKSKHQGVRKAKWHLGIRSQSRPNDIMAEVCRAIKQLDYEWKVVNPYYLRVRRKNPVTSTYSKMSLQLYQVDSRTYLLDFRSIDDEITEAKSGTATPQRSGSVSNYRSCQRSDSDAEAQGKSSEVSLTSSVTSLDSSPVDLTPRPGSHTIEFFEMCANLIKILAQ
Chain of AMP-activated protein kinase alpha-1/beta-2/gamma-3 (Homo sapiens) (Q9UGI9 whole entry, looked up): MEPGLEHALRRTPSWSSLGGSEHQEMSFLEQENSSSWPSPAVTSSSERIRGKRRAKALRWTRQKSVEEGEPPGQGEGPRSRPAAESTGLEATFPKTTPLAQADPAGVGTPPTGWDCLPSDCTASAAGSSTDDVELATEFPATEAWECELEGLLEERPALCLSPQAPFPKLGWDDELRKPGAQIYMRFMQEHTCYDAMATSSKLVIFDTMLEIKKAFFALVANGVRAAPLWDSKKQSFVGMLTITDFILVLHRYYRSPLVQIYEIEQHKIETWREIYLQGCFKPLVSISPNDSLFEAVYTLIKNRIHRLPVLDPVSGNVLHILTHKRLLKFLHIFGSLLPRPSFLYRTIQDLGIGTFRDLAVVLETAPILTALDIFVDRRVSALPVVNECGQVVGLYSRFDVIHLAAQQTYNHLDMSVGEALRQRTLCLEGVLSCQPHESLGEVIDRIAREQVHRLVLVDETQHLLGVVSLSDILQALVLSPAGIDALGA
The target of experiment [10] is AMP-activated protein kinase alpha-2/beta-1/gamma-3 (Homo sapiens) (UniProt P54646+Q9Y478+Q9UGI9). Put plainly: Activation of human recombinant AMPKalpha2beta1gamma3 expressed in Escherichia coli at 50 nM incubated for 1 hr using serine/threonine kinase substrate.
Experiment [11] has as its target AMPK alpha2/beta1/gamma1 (Homo sapiens) (UniProt P54646+P54619+Q9Y478). Put plainly: Activation of human recombinant AMPKalpha2beta1gamma1 expressed in Escherichia coli at 50 nM incubated for 1 hr using serine/threonine kinase substrate.
Experiment [12] deals with AMPK alpha2/beta2/gamma1 (Homo sapiens) (UniProt P54646+O43741+P54619). The experiment in a line: Activation of human recombinant AMPKalpha2beta2gamma1 expressed in Escherichia coli at 50 nM incubated for 1 hr using serine/threonine kinase substrate.
Chain of AMPK alpha2/beta2/gamma1 (Homo sapiens) (O43741 whole entry, looked up): as the sequence (O43741 whole entry, looked up) above
Chain of AMPK alpha2/beta2/gamma1 (Homo sapiens) (P54619 whole entry, looked up): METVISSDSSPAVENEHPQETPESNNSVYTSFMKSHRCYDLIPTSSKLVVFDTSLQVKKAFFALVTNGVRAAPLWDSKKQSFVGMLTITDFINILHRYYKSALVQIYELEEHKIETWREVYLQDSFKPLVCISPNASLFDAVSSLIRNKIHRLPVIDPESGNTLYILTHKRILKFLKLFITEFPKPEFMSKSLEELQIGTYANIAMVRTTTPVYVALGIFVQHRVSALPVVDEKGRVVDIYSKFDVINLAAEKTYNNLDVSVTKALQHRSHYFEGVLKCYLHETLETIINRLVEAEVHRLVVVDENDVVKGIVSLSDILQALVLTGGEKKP
Chain of AMPK alpha2/beta2/gamma1 (Homo sapiens) (P54646 whole entry, looked up): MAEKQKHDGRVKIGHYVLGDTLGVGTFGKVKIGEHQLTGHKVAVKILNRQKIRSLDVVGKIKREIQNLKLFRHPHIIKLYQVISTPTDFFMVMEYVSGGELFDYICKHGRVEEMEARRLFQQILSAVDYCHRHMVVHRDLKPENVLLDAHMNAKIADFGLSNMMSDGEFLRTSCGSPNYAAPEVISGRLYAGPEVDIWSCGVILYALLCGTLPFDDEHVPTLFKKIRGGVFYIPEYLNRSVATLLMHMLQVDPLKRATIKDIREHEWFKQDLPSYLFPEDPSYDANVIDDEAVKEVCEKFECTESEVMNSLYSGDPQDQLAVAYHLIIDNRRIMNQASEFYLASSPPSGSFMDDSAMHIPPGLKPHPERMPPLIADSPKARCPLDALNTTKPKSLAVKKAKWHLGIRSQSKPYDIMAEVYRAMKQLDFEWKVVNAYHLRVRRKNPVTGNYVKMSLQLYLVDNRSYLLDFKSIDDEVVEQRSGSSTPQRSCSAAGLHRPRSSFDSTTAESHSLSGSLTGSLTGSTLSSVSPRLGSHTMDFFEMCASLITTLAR
Experiment [13] deals with AMP-activated protein kinase (AMPK) alpha-1/beta-1/gamma-1 (Homo sapiens) (UniProt P54619+Q9Y478+Q13131). The experiment in a line: Activation of human recombinant AMPKalpha1beta1gamma1 expressed in Escherichia coli at 50 nM incubated for 1 hr using serine/threonine kinase substrate.
Experiment [14] has as its target AMPK alpha1/beta2/gamma1 (Homo sapiens) (UniProt O43741+P54619+Q13131). The experiment in a line: Activation of human recombinant AMPKalpha1beta2gamma1 expressed in Escherichia coli at 50 nM incubated for 1 hr using serine/threonine kinase substrate.
The target in experiment [15] is Voltage-gated inwardly rectifying potassium channel KCNH2 (Homo sapiens, UniProt Q12809). The experiment in a line: Inhibition of human ERG by patch clamp assay. In general terms: The patch-clamp technique gives a direct electrical read-out from membranes.
Chain of Voltage-gated inwardly rectifying potassium channel KCNH2 (Q12809 whole entry): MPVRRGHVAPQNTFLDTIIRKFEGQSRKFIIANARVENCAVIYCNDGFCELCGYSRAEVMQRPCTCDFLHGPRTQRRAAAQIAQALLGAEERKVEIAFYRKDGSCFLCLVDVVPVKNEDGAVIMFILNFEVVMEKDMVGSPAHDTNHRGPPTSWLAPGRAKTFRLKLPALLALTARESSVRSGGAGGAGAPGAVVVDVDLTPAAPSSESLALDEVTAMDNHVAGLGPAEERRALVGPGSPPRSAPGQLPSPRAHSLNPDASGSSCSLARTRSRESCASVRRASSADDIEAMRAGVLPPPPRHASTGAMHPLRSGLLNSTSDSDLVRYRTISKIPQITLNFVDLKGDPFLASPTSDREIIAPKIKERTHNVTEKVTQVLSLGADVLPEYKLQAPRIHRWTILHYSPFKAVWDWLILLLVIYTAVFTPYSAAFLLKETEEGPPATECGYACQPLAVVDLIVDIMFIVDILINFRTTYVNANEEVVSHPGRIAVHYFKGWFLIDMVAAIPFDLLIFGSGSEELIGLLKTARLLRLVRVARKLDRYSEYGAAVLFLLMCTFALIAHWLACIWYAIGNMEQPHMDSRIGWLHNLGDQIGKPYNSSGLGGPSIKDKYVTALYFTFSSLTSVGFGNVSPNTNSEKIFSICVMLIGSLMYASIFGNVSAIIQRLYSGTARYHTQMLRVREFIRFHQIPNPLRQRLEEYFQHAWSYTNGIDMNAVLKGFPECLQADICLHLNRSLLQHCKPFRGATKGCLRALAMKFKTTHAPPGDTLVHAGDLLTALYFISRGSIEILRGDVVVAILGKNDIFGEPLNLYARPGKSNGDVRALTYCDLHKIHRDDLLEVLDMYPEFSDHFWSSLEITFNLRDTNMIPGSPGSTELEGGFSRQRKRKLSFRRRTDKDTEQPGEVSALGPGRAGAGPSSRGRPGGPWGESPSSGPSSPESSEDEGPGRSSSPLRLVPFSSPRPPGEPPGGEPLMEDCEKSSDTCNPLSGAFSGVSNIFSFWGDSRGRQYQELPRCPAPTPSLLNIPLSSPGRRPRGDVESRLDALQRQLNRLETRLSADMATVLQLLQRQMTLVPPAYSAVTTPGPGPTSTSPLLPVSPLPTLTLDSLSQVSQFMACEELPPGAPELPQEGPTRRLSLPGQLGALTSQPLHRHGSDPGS
In experiment [16] the test system is L6. The experiment in a line: Inhibition of oxygen consumption rate in rat L6 cells assessed as oxygen consumption level at 20 uM (reference value: 100 +/- 1.6%). Format: functional. Details: scale not given: the % may be the effect or the level left.
The subject of experiment [17] is L6. The experiment in a line: Inhibition of oxygen consumption rate in rat L6 cells assessed as oxygen consumption level at 10 uM (reference value: 100 +/- 1.6%). Format: functional. Details: scale not given: the % may be the effect or the level left.
The nature of experiment [18]: Inhibition of oxygen consumption rate in isolated mitochondria from rat L6 cells assessed as oxygen consumption level at 5 uM (reference value: 100 +/- 1.9%). Details: scale not given: the % may be the effect or the level left. In kind it is functional.
Experiment [19] in a line: Inhibition of oxygen consumption rate in isolated mitochondria from rat L6 cells assessed as oxygen consumption level at 2.5 uM (reference value: 100 +/- 1.9%). Format: functional. Details: scale not given: the % may be the effect or the level left.
For experiment [20], the system named is L6. The experiment in a line: Stimulation of glucose consumption in rat L6 cells at 10 uM incubated for 12 hrs by glucose assay reagent based glucose oxidase method relative to untreated control. Format: functional.
Experiment [21] can be described thus: Inhibition of oxygen consumption rate in isolated mitochondria from rat L6 cells assessed as oxygen consumption level at 10 uM (reference value: 100 +/- 1.9%). In kind it is functional. Details: scale not given: the % may be the effect or the level left.
Experiment [22] can be described thus: Inhibition of oxygen consumption rate in isolated mitochondria from rat L6 cells assessed as oxygen consumption level at 1.2 uM (reference value: 100 +/- 1.9%). Format: functional. Details: scale not given: the % may be the effect or the level left.

Chain of AMPK alpha1/beta2/gamma1 (Homo sapiens) (O43741 whole entry, looked up): as the sequence (O43741 whole entry, looked up) above
Chain of AMPK alpha1/beta2/gamma1 (Homo sapiens) (P54619 whole entry, looked up): as the sequence (P54619 whole entry, looked up) above
Chain of AMPK alpha1/beta2/gamma1 (Homo sapiens) (Q13131 whole entry, looked up): as the sequence (Q13131 whole entry, looked up) above

In the case of `COc1ccc(OC)c2c1CC1c3cc(CC4CC4)sc3CCN1C2` (centres undefined), the Activity in the experiment with Hepatocyte [1] worked out at 45.8%; with Hepatocyte [2], 85.4%; in the experiment with Hepatocyte [3] it was 62.8%; in the experiment with L6 [5], 261.7%; in the experiment with L6 [6] it was 86.4%. In the experiment on Hepatocyte [4], the inhibition result is “Dose-dependent effect”.

For `N#Cc1c(O)c2c(-c3ccc(-c4ccccc4O)cc3)csc2[nH]c1=O`, the outcome in experiment [7], in experiment [9], in experiment [12] and in experiment [14] was inactive. The outcome in [8], in experiment [10], in experiment [11] and in experiment [13] was Active.

In [15], `COc1ccc2cc3[n+](cc2c1OC)CCc1cc2c(cc1-3)OCO2.[Cl-]` [BERBERINE CHLORIDE] came in with an IC50 of 3.1 µM. For the same compound, the Activity is reported as 49.8% in the experiment on Hepatocyte [1]; 75% with L6 [16]; 91.9% in the experiment with L6 [17]; 63.6% in experiment [18]; 69.3% in [19]; 68.8% with Hepatocyte [2]. The Activity is 173.1% in the experiment with L6 [20]; 64.7% in the experiment with Hepatocyte [3]; 59.2% in [21]; 91.2% with L6 [6]; 78.9% in experiment [22].

Consider `COc1cc2c(c(OC)c1OC)CN1CCc3sccc3C1C2` (centres undefined), for which the Activity in the experiment with L6 [5] is reported as 131.1%.

In the experiment with L6 [5], `COc1ccc(OC)c2c1CC1c3cc(C(=O)N4CCCC4)sc3CCN1C2` (centres undefined) gave an Activity of 100.5%.

In the experiment on L6 [5], `CNC(=O)c1cc2c(s1)CCN1Cc3c(OC)ccc(OC)c3CC21` (centres undefined) yielded an Activity of 113.8%.

Turning to `CS(=O)(=O)Nc1cc2c(cc1OCc1ccccc1)CN1CCc3sccc3C1C2` (centres undefined), the Activity with L6 [5] is reported as 115.5%.

The compound `COc1cc2c(cc1OC)CN1CCc3sccc3C1C2` (centres undefined) registered an Activity in the experiment with L6 [5] of 114.4%.

Compound `COc1ccc(OC)c2c1CC1c3cc(C=O)sc3CCN1C2` (centres undefined) showed an Activity in the experiment on L6 [5] of 105.9%.

For `CC(C)(C)C(=O)Nc1ccc2c(c1)CC1c3ccsc3CCN1C2` (centres undefined), the Activity with L6 [5] was 112.3%.

Take `COc1ccc(OC)c2c1CC1c3cc(CN4CCOCC4)sc3CCN1C2` (centres undefined): the Activity with L6 [5] was determined as 101%.

`COc1cc2c(cc1O)CN1CCc3sccc3C1C2` (centres undefined) yielded an Activity in the experiment on L6 [5] of 105.2%.

In the experiment with L6 [5], `COc1ccc(OC)c2c1CC1c3cc(C(=O)O)sc3CCN1C2` (centres undefined) had an Activity of 116%.

In the experiment with L6 [5], `COc1ccc(OC)c2c1CC1c3cc(C(=O)N4CCn5c(nnc5C(F)(F)F)C4)sc3CCN1C2` (centres undefined) showed an Activity of 93.9%.

In the experiment with L6 [5], `COc1ccc2c(c1)CC1c3ccsc3CCN1C2` (centres undefined) yielded an Activity of 103.6%.

In the experiment on L6 [5], `COc1ccc(OC)c2c1CC1c3cc(CC4CCNCC4)sc3CCN1C2` (centres undefined) returned an Activity of 103.4%.
